Reference: patent publication US8163766B2, “Beta-secretase modulators and methods of use” (Amgen Inc., priority 2005, dated 2012)

Test system: Aβ 40 in conditioned media of cells stably expressing Amyloid Precursor Protein (APP)
Assay: BACE Cell-Based Assay (Aβ40 in conditioned medium, sandwich ELISA)
Settings: 24 hours of incubation with the test compounds, Aβ 40 by sandwich ELISA, read-out: IC50 values in the cell-based assay (inhibition of Aβ 40)
Outline: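 IC50 derived from Aβ40 reduction in supernatants, quantified by europium time-resolved fluorescence ELISA with pAb40/biotin-6E10 antibodies incubated at 4°C. Cells stably expressing APP received compound for 24 h, ten concentrations from 100 μM or 10 μM top, final DMSO 0.1%.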

SMILES | IC50
O=C1CC[C@@H](C(=O)N[C@@H](Cc2ccccc2)[C@H](O)CN[C@H]2CC3(CCC3)Oc3ccc(N4CCOCC4)cc32)O1 [Example 528, (2S)-N-((1S,2R)-2-hydroxy-3-(((4S)-6-(4-morpholinyl)-3,4-dihydrospiro[chromene-2,1′-cyclobutan]-4-yl)amino)-1-(phenylmethyl)propyl)-5-oxotetrahydro-2-furancarboxamide] | ≤ 5 µM
O=C1CC[C@H](C(=O)N[C@@H](Cc2ccccc2)[C@H](O)CN[C@H]2CC3(CCC3)Oc3ccc(N4CCOCC4)cc32)O1 [Example 529, (2R)-N-((1S,2R)-2-hydroxy-3-(((4S)-6-(4-morpholinyl)-3,4-dihydrospiro[chromene-2,1′-cyclobutan]-4-yl)amino)-1-(phenylmethyl)propyl)-5-oxotetrahydro-2-furancarboxamide] | ≤ 5 µM
